Assay results published in article PMC4794652, “Identification of E-cadherin signature motifs functioning as cleavage sites for Helicobacter pylori HtrA” (Scientific Reports, 2016).
Entries after “also recorded” stand apart in the source; their conditions may differ. No end group written: not given here.

Legend:
[1] = test system: HtrA wild-type (H. pylori); experiment: Direct peptide binding to immobilised HtrA by surface plasmon resonance (SPR); details: for direct binding to immobilised HtrA (SPR response) / concentration-dependent SPR binding to HtrA, C-terminal carboxyl vs amide: SPR-2, 25 °C, 25 μl/min; for direct binding to immobilised HtrA (SPR response): HBS-P (10 mM HEPES-buffered saline, 150 mM NaCl, 0.005% Tween), against significance threshold, in words (Fig. 4C); for concentration-dependent SPR binding to HtrA, C-terminal carboxyl vs amide: HBS-P, in words (Fig. 4D, S3B, S3C)
Method: Affinity studies were performed on a Sierra Sensors GmbH SPR-2 instrument. Measurements were performed at 25 °C with a flow rate of 25 μl/min. Carboxymethyl dextran matrix high-density sensor chips (SPR-2 Affinity Sensor HC, batch 10-BC-04-154-A, Sierra Sensors) were used to immobilise 20 μg/ml HtrA wild-type (wt) in 10 mM HEPES (HEPES buffer 1 M solution, pH 7.3, Fisher Scientific) by adding 198 μl amine coupling with an activation solution (200 mM N-ethyl-3-(3-dimethylaminopropyl)-carbodiimide [EDC] and 50 mM N-hydroxysuccinimide [NHS]). The SPR sensor surface was loaded with 100 μl protein and subsequently treated by injecting 192 μl of 1 M ethanolamine at pH 8.5 for inactivation of excess coupling groups. HBS-P (10 mM HEPES-buffered saline, 150 mM NaCl, 0.005% Tween) served as running and sample buffer for peptide measurements. Peptide samples were directly dissolved in HBS-P buffer. The experiments with the non-peptidic compounds were performed utilising HBS-PD running buffer (10 mM HEPES-buffered saline with 3% DMSO, 150 mM NaCl, 0.005% Tween).

H. pylori HtrA [2] = experiment: In vitro HtrA-mediated E-cadherin (rCdh1) cleavage, inhibition by peptides (Western blot); format: biochemical
Method: (§1) Proteins were separated by SDS PAGE and analysed by Western blot using specific antibodies against HtrA[21], the extracellular domains EC5 (H108, Santa Cruz Biotechnology and ab40772, Abcam), EC1 (SHE78-7, Invitrogen) and EC2 (HecD1, Calbiochem) of E-cadherin, or the intracellular domain (24E10, Cell Signaling). His6-tagged proteins were analysed using an anti-His5-antibody (Qiagen). GAPDH (Cell Signaling) and β-actin (Sigma) were detected as loading controls. Where indicated, signals of protein bands were quantified using the ImageLab software (BioRad). Graphical presentation and statistical evaluations (Student’s t-test) were performed with GraphPad Prism 5 and p-values of ***p ≤ 0.001, **p ≤ 0.01 and *p ≤ 0.05 were considered statistically significant.
Purification of recombinant H. pylori HtrA and in vitro cleavage assays have been described elsewhere. Briefly, 200 ng recombinant HtrA was incubated with 50 ng recombinant hCdh1 (R&D Systems) in 50 mM HEPES pH 7.4 and 100 μM EDTA for 16 h (or for the indicated time periods) at 37 °C. Where indicated, test peptides were added.

H. pylori HtrA [3] = experiment: Competition experiment: interference with P1-mediated HtrA inhibition (rCdh1 cleavage, Western blot); format: biochemical; details: 100 μM peptides, 50 ng rCdh1, 200 ng rHtrA, 16 h, 37 °C, in words (Fig. S4B)
Method: as §1
Purification of recombinant H. pylori HtrA and in vitro cleavage assays have been described elsewhere. […]
Figure S4. […] (A) Synthesized peptides based on the most frequent detected peptide during label-free mass spectrometry-based proteomic analysis. […] The cleavage fragments were analyzed by Western blot and detected using an antibody against the EC5. (D) Quantitative analysis of the relative amount of β-actin in whole cell lysates (WCL) of the H. pylor i-infected cells by blot densitometry from […]
1 Niessen, C. M. & Gumbiner, B. M. Cadherin-mediated cell sorting not determined by binding or […]

[4] = test system: H. pylori transmigration across MKN-28 cells; experiment: Transmigration of H. pylori across polarised MKN-28 cell monolayer (transwell filter assay); format: cell-based, H. pylori; human (MKN-28 cells); details: 100 μM, 200 μM, 500 μM P1; MOI 50; cfu from basal chamber; n = 3, mean ± std dev; in words (Fig. 5C)
Text: (§2) The human gastric adenocarcinoma cell line AGS is E-cadherin-negative and was derived from an adenocarcinoma of the stomach of a person (ECACC, 89090402). AGS cells expressing hCdh1 were generated by transfection using a plasmid containing E-cadherin wild-type cDNA[50] which has been kindly provided by Rohan D. Teasdale (University of Queensland, Australia). E-cadherin-positive MKN-28 cells (JCRB, 0253, obtained from the Max-Planck Institute for Infection Biology) were originally described as being isolated from a moderately differentiated tubular adenocarcinoma and have been frequently used to study E-cadherin-dependent processes. The gastric epithelial NCI-N87 cells (ATCC, CRL-5822) were included as an additional E-cadherin-expressing cell line[24] and were derived from metastasis in the liver. All cells have been described previously[24][51] and were grown in RPMI 1640 medium containing 4 mM glutamine (Invitrogen) and 10% FCS (Sigma) in a humidified atmosphere at 37 °C. […] Adherence of H. pylori was quantitated in a cfu (colony-forming unit) assay. […] The number of cfu was determined by growth on agar plates for 72 h. […] The number of transmigrated bacteria was determined as cfu by taking aliquots from the basal chambers. […]

[5] = test system: HtrA in H. pylori-infected AGS cells; experiment: Inhibition of HtrA in H. pylori-infected AGS cells transfected with hCdh1 (formation of 90 kDa hCdh1 NTF fragment); format: cell-based, H. pylori; human (AGS cells); details: transfected AGS cells expressing hCdh1, H. pylori infection 16 h, 50 μl supernatant; blot densitometry, three independent experiments; in words (Fig. 5B)
Method: Figure 5 Inhibition of HtrA-mediated E-cadherin cleavage. (A) 50 ng rCdh1 was incubated with 200 ng HtrA and indicated concentrations of P1. rCdh1 fragments and HtrA were detected using specific antibodies. (B) Transfected AGS cells expressing hCdh1 were infected with H. pylori (Hp) or left untreated (–) for 16 h. 50 μl aliquots of the supernatants were separated by SDS PAGE and blotted onto membranes. The 90 kDa hCdh1^NTF fragment was detected by Western blots. The relative amount of hCdh1^NTF fragment was quantified by blot densitometry from three independent experiments. […] (C) Polarised MKN-28 cells grown on transwell filters were infected with H. pylori in the presence and absence of peptide P1 at different concentrations (100 μM, 200 μM, 500 μM). Bacteria that had transmigrated across the MKN-28 monolayer on the filter were counted (n = 3, mean ± std dev).
The human gastric adenocarcinoma cell line AGS is E-cadherin-negative and was derived from an adenocarcinoma of the stomach of a person (ECACC, 89090402). […] Adherence of H. pylori was quantitated in a cfu (colony-forming unit) assay. […] The number of cfu was determined by growth on agar plates for 72 h. […] The number of transmigrated bacteria was determined as cfu by taking aliquots from the basal chambers. […]

[6] = test system: HtrA in H. pylori infections of several other cell lines; experiment: Inhibition of hCdh1 NTF formation in H. pylori infections of several other cell lines; format: cell-based; details: different infection doses, data not shown, in words
Text: as §2

NDNAPIPEPR [Peptide P5]
direct binding to immobilised HtrA (SPR response) [1]: positive binding response above the significance threshold

P1-NH2: P1 with a C-terminal alpha-amide (TGTLLLILSDVNDNAPIPEPR-NH2) [Peptide P1-NH2]
concentration-dependent SPR binding to HtrA, C-terminal carboxyl vs amide [1]: concentration-dependent binding

TGTLLLI [Peptide P1_NT, short peptide P1_NT, contains the hydrophobic amino acid stretch TGTLLLI]
blocking of HtrA-induced E-cadherin cleavage, 7-residue N-terminal peptides (H. pylori HtrA [2]; 100 μM peptide, 50 ng rCdh1, 200 ng rHtrA, 16 h, 37 °C, in words (Fig. S4B)): None of these peptides blocked HtrA-induced E-cadherin cleavage
interference with P1-mediated HtrA inhibition (H. pylori HtrA [3]): None of these peptides blocked HtrA-induced E-cadherin cleavage or interfered with P1-mediated HtrA inhibition

TGTLLLILSDVNDNAPIPEPR [Peptide P1]
inhibition of in vitro HtrA-mediated E-cadherin cleavage (H. pylori HtrA [2]; 100 μM peptide, 200 ng HtrA, 50 ng rCdh1, 50 mM HEPES pH 7.4, 100 μM EDTA, 16 h, 37 °C, Western blot, in words (Fig. 4A,B)): effectively inhibited in vitro HtrA-mediated E-cadherin cleavage; also recorded: efficiently inhibited HtrA-mediated E-cadherin cleavage
inhibition of HtrA-mediated rCdh1 cleavage, concentration dependence (H. pylori HtrA [2]; indicated concentrations of P1, 50 ng rCdh1, 200 ng HtrA, Western blot, in words (Fig. 5A)): strongly inhibited HtrA-mediated rCdh1 cleavage in a concentration-dependent manner
inhibition of HtrA-mediated E-cadherin cleavage in vitro (summary) (H. pylori HtrA [2]; summary statement without concentration, in words): efficiently blocked E-cadherin cleavage in vitro
direct binding to immobilised HtrA (SPR response) [1]: strong binding
concentration-dependent SPR binding to HtrA, C-terminal carboxyl vs amide ([1]; listed as P1-OH): concentration-dependent binding; also recorded: stronger SPR signals; also recorded: greater SPR response than its amide counterpart
binding specificity for HtrA ([1]; in words): binds with high specificity
H. pylori transmigration across polarised MKN-28 monolayer [4]: strong concentration-dependent reduction of H. pylori transmigration; also recorded: inhibition of H. pylori transmigration
formation of hCdh1 NTF fragment (bioactivity in H. pylori-infected AGS cells) [5]: significant dose-dependent decrease in the formation of the hCdh1^NTF; also recorded: weaker, but still significant at higher concentrations
decrease in formation of hCdh1 NTF in other cell lines and infection doses [6]: This effect was also observed in H. pylori infections of several other cell lines and at different infection doses
